Results: patent US7772221B2, “Diaminopropane derived macrocycles as inhibitors of β amyloid production” (Bristol-Meyers Squibb Company, priority 2007, dated 2010)
Like-named read-outs stand apart in the source and are kept apart here.

What was measured:
[1] = rcm bond
BACE1 enzyme = biological target: T1, BACE1 enzyme (Homo sapiens, UniProt P56817); test: Radioligand displacement assay with a radiolabeled BACE inhibitor; format: binding; conditions: HEK293-9B.A1 cell homogenate overexpressing BACE1, 1 nM radioligand, pH 5.0, 1.5 hr at 25° C.; read-out: Activity Rating (activity based on IC50 values)
T1 construct: endogenous in cells; washed 48,000 x g membrane pellet / cell homogenate
T1 sequence (P56817 46-501): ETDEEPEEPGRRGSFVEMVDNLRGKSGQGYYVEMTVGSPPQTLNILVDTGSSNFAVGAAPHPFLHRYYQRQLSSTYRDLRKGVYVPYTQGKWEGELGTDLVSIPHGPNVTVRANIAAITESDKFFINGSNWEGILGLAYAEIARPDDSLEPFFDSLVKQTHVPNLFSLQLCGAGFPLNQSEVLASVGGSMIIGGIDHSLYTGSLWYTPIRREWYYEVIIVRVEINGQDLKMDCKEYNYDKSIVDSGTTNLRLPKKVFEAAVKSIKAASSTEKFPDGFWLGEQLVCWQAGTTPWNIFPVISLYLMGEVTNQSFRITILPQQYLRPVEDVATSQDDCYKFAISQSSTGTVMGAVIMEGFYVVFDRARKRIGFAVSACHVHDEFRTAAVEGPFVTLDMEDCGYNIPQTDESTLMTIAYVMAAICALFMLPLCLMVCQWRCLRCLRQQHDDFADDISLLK
Source text: There are a number of methods by which inhibitors of the BACE enzyme can be identified experimentally. The enzyme can be obtained from membrane samples from natural tissues or cultured cells or can be expressed recombinantly in a host cell by well known methods of molecular biology. The whole enzyme or a portion thereof can be expressed, for example, in bacterial, insect or mammalian cells to obtain a catalytically active enzyme species. The enzymatic activity and/or ligand binding capability of the enzyme can be assessed within these membrane samples, or the enzyme can be purified to varying extents. As an illustrative example, the nucleic acid sequence encoding the pro and catalytic domains of human BACE can be appended on the 5′ end with an untranslated and signal sequence from the gene for acetylcholinesterase, and on the 3′ end with a sequence encoding a poly-histidine tag. This cDNA can then be expressed in Drosophila melanogaster S2 cells in which the signal and pro sequences of the transcribed/translated protein are removed by cellular proteases and the catalytic domain, appended by a C-terminal poly-histidine tag, is secreted out into the cellular medium. The enzyme can then be purified from the culture medium by nickel affinity chromatography by methods well known to those trained in the art [Mallender, W. et al., “Characterization of recombinant, soluble beta-secretase from an insect cell expression system.” Mol. Pharmacol. 2001, 59: 619-626]. Similar strategies for expressing and purifying various forms of BACE in bacterial, mammalian and other cell types would be known to one skilled in the art. A preferred method for determining the potency of a test compound in binding to the BACE enzyme is by monitoring the displacement of a suitable radioligand.
Radioligand displacement assays with a radiolabeled BACE inhibitor (WO 2004 013098, compound 3, where the methoxy group is substituted for C(^3H)3) were carried out using standard methods (Keen, M. (1999) in Receptor Binding Techniques (Walker, J. M. ed) p. 106 Humana Press, Totowa, N.J.). The HEK293-9B.A1 cell line, which overexpresses the BACE1 enzyme, was derived from HEK293 cells (Simmons, N. L. (1990) A cultured human renal epithelioid cell line responsive to vasoactive intestinal peptide. Exp. Physiol. 75:309-19.) by RAGE™ (Harrington, J. J. et al. (2001) Creation of genome-wide protein expression libraries using random activation of gene expression. Nat. Biotechnol. 19:440-5.; U.S. Pat. Nos. 6,410,266 and 6,361,972). T225 flask cultures of HEK293-9B.A1 were grown to 80% confluency in DMEM supplemented with 2 mM L-glutamine, 10 μg/mL penicillin, 10 μg/mL streptomycin, 3 μg/mL puromycin, 100 nM methotrexate, and 10% fetal bovine serum (Invitrogen, Carlsbad, Calif.), harvested, and resuspended at 2×10^8 cells per 10 mL of lysis buffer consisting of 50 mM HEPES pH 7.0 containing a protease inhibitor cocktail of AEBSF 104 μM, aprotinin 80 nM, leupeptin 2 μM, bestatin 4 μM, pepstatin A 1.5 μM, and E-64 1.4 μM (0.1% of protease inhibitor cocktail P8340, Sigma-Aldrich, St. Louis, Mo.) at 4° C. The resuspended cells were homogenized using a Polytron (Brinkman, Westbury, N.Y.) at setting 6 for 10 sec., then centrifuged at 48,000×g for 10 min. The resulting pellet was washed by repeating the resuspension, homogenization and centrifugation steps. The final pellet was resuspended in buffer at 4° C. to yield a total protein concentration of 5 mg/mL, then aliquots were frozen in liquid nitrogen for further storage at −70° C. Immediately before carrying out a binding assay, an aliquot of cell homogenate was thawed and diluted to a concentration of 100 μg/mL in assay buffer consisting of 50 mM HEPES pH 5.0 and 0.1% CHAPSO. […]

[2] = rcm bond, 1,2-dichloroethane, 60.0 °C

Compound: COc1ccc2c(c1)[C@@H]1CC2N(C(=O)OCc2ccccc2)CCC=CC[C@H](N(C)C(C)=O)C(=O)N[C@@H](Cc2ccccc2)[C@H](O)CN1
- ring closure, yield after HPLC ([1]; from C=CCCN(C(=O)OCc1ccccc1)C1C[C@H](NC[C@@H](O)[C@H](Cc2ccccc2)NC(=O)[C@H](CC=C)N(C)C(C)=O)c2cc(OC)ccc21, 16-membered ring): 83%

Compound: CC(C)C[C@@H]1COCC=CCC[C@H](N(C)S(=O)(=O)CCC(F)(F)F)C(=O)N[C@@H](Cc2cc(F)cc(F)c2)[C@H](O)CN1 [Example 42, N-((3R,6R,7S,10S)-7-(3,5-difluorobenzyl)-6-hydroxy-3-isobutyl-9-oxo-1-oxa-4,8-diazacyclopentadec-13-en-10-yl)-3,3,3-trifluoro-N-methylpropane-1-sulfonamide]
- IC50 (BACE1 enzyme): > 500 nM
- ring closure, isolated yield ([2]; from C=CCC[C@@H](C(=O)N[C@@H](Cc1cc(F)cc(F)c1)[C@H](O)CN[C@@H](COCC=C)CC(C)C)N(C)S(=O)(=O)CCC(F)(F)F, 15-membered ring, Hoveyda-Grubbs (16 mol%), 19.0 mM, 16.0 h): 19%

Compound: CCCOc1ccc2c(c1)[C@@H]1C[C@H]2OCC=CCCCC(=O)N[C@@H](Cc2cc(F)cc(F)c2)[C@H](O)CN1
- ring closure, yield after HPLC ([1]; from C=CCCCC(=O)N[C@@H](Cc1cc(F)cc(F)c1)[C@H](O)CN[C@H]1C[C@@H](OCC=C)c2ccc(OCCC)cc21, 16-membered ring, Hoveyda-Grubbs II, DCM, 25.0 °C, 16.0 h): 20%

Compound: CCCC[C@H](C)C(=O)N(C)[C@H]1CC=CCOc2ccc(OC)cc2CNC[C@@H](O)[C@H](Cc2ccccc2)NC1=O [Example 59, (S)-N-((6S,9S,10R)-9-benzyl-10-hydroxy-15-methoxy-7-oxo-2,5,6,7,8,9,10,11,12,13-decahydrobenzo[b][1,5,9]oxadiazacyclopentadecin-6-yl)-N,2-dimethylhexanamide]
- IC50 (BACE1 enzyme): > 500 nM
- ring closure, yield after HPLC ([1]; from C=CCOc1ccc(OC)cc1CNC[C@@H](O)[C@H](Cc1ccccc1)NC(=O)[C@H](CC=C)N(C)C(=O)[C@@H](C)CCCC, 15-membered ring, Hoveyda-Grubbs II (21 mol%), DCM, 4.3 mM, 40.0 °C, 4.0 h): 49%

Compound: CCCC(CCC)C(=O)N(C)[C@H]1CC=CCO[C@@H]2C[C@H](NC[C@@H](O)[C@H](Cc3ccccc3)NC1=O)c1cc(OC)ccc12
- ring closure, yield after HPLC ([1]; from C=CCO[C@@H]1C[C@H](NC[C@@H](O)[C@H](Cc2ccccc2)NC(=O)[C@H](CC=C)N(C)C(=O)C(CCC)CCC)c2cc(OC)ccc21, 15-membered ring, Hoveyda-Grubbs II (9 mol%), DCM, 25.0 °C, 16.0 h): 34%

Compound: CCCCCS(=O)(=O)N(C)[C@H]1CC=CCCCc2ccc(C(F)(F)F)cc2CNC[C@@H](O)[C@H](Cc2cc(F)cc(F)c2)NC1=O [Example 40, N-((4R,5S,8S)-5-(3,5-difluorobenzyl)-4-hydroxy-17-(trifluoromethyl)-7-oxo-1,2,3,4,5,6,7,8,9,12,13,14-dodecahydrobenzo[g][1,5]diazacyclohexadecin-8-yl)-N-methylpentane-1-sulfonamide]
- IC50 (BACE1 enzyme): 10 to 500 nM
- ring closure, isolated yield ([2]; from C=CCCCc1ccc(C(F)(F)F)cc1CNC[C@@H](O)[C@H](Cc1cc(F)cc(F)c1)NC(=O)[C@H](CC=C)N(C)S(=O)(=O)CCCCC, 16-membered ring, Hoveyda-Grubbs (19 mol%), 6.5 mM, 16.0 h): 32%

Compound: CC(C)C[C@@H]1NC(=O)CCCC=CCO[C@@H]2C[C@H](NC[C@H]1O)c1cc(OC(C)C)ccc12 [Example 79, (1S,4R,5S,15R)-4-hydroxy-5-isobutyl-19-isopropoxy-14-oxa-2,6-diaza-tricyclo[13.6.1.0^16,21]docosa-11,16(21),17,19-tetraen-7-one]
- IC50 (BACE1 enzyme): > 500 nM

Compound: CCCCCS(=O)(=O)N(C)[C@H]1CC=CCCCc2ccc(C)cc2CNC[C@@H](O)[C@H](Cc2cc(F)cc(F)c2)NC1=O
- ring closure, isolated yield ([2]; from (S)-N-((2S,3R)-1-(3,5-difluorophenyl)-3-hydroxy-4-(5-methyl-2-(pent-4-enyl)benzylamino)butan-2-yl)-2-(N-methylpentylsulfonamido) pent-4-enamide, 16-membered ring, Hoveyda-Grubbs (20 mol%), 6.3 mM): 18%

Compound: COc1ccc2c(c1)[C@@H]1CC2N(C)CCCCC[C@H](N(C)S(=O)(=O)CCC(F)(F)F)C(=O)N[C@@H](Cc2ccccc2)[C@H](O)CN1 [Example 56, 3,3,3-trifluoro-propane-1-sulfonic acid ((1S,4R,5S,8S)-5-benzyl-4-hydroxy-19-methoxy-14-methyl-7-oxo-2,6,14-triaza-tricyclo[13.6.1.0^16,21]docosa-16(21),17,19-trien-8-yl)-methyl-amide]
- IC50 (BACE1 enzyme): 10 to 500 nM

Compound: CCCC(CCC)C(=O)N(C)[C@H]1CC=CCOCCC(c2cccc(OC)c2)NC[C@@H](O)[C@H](Cc2ccccc2)NC1=O (stereo partly drawn) [Example 19, N-((7R,8S,11S)-8-benzyl-7-hydroxy-4-(3-methoxyphenyl)-10-oxo-1-oxa-5,9-diazacyclopentadec-13-en-11-yl)-N-methyl-2-propylpentanamide]
- IC50 (BACE1 enzyme): > 500 nM
